The text below walks through data of US20240317683A1, “METHODS OF TREATING MOOD DISORDERS” (priority 2020, published 2024).

What is called inhibition is the share of the control response that was lost under treatment. As a reminder, the EC50 is the concentration at which the effect is half-maximal. A high value points to weaker potency. For orientation: IC50 means the concentration at which inhibition is half-maximal. A low value points to greater potency in that assay. A word on the AUC(0-t): it is the area under the concentration-time curve up to a stated or last time point. Read a low AUC(0-t) as low exposure. One may read the Cmax as the highest concentration seen after dosing. The term Tmax denotes the time from dosing to the highest level. By half-life is commonly meant how long it takes for the measured level to halve. A higher half-life goes with slow decline.

Counter-ions that a name gives are not always drawn. Some results are limits rather than exact numbers.

One series concerns C57BL/6 mice. The series is described as follows: Head twitch response (HTR) in mice. The class given is in vivo. As to conditions: for Average HTR: 20 mins; for maximal effect in HTR: SC, maximal over tested doses. As for the experimental part:
Animals. Adult male C57BL/6 mice, aged 8 weeks (body weight 20-25 g) were used in these experiments. Animals were housed under controlled temperatures and 12-hour light/dark cycles (lights on between 07:00-19:00 h), with ad libitum food and water. The protocol was approved by the Eurofins Advinus Institutional Animal Care and Use Committee. This study was carried out in strict accordance with the recommendations in the Guide for the Care and Use of Laboratory Animals of the National Institutes of Health. All efforts were made to minimize suffering.
Drugs and Drug administration. Compounds 3 and 4 were prepared as described above. All other compounds were commercially obtained. Test compounds were used as the hydrogen fumarate (1 and 2) or hydrochloride (DOI, 3, and 4) salts. Drugs were dissolved in a vehicle consisting of normal saline and administered subcutaneously (SC) in a volume of 10 ml/kg. Test compounds were administered at 5 doses per compound (0.1 to 100 mg/kg, as indicated, calculated based on the free base) using N=6 animals/group. […] For blockade experiments, MDL100907 (0.1 mg/kg, SC) was administered 10 mins prior to the test compound.
Procedure. Mice were administered one dose of a test drug (or vehicle) s.c. and immediately placed into a small open field for behavioral observation. Animals were observed continuously for 20 mins and the number of HTRs were counted by an observer blind to the treatment condition.
Statistical analysis. The data points shown in Table 11 are the mean ±standard error of the mean (SEM). Analysis was performed using GraphPad Prism 9.

The target of another series is CYP2D6 (Homo sapiens (Human), UniProt P10635). The series is described as follows: CYP inhibition in human liver microsomes, CYP2D6. In kind it is in vitro ADME. As to conditions: for inhibition at 10 min, 10 µM: both sexes, human, pooled human liver microsomes, pH 7.4, probe dextromethorphan (5 μM), HLM, dextromethorphan substrate, read-out: CYP 2D6 % Inhibition at 10 μM. On the technique in general: Microsomes from liver hold many membrane-bound enzymes, among them those of drug oxidation.
CYP2D6, sequence (P10635 whole entry, looked up): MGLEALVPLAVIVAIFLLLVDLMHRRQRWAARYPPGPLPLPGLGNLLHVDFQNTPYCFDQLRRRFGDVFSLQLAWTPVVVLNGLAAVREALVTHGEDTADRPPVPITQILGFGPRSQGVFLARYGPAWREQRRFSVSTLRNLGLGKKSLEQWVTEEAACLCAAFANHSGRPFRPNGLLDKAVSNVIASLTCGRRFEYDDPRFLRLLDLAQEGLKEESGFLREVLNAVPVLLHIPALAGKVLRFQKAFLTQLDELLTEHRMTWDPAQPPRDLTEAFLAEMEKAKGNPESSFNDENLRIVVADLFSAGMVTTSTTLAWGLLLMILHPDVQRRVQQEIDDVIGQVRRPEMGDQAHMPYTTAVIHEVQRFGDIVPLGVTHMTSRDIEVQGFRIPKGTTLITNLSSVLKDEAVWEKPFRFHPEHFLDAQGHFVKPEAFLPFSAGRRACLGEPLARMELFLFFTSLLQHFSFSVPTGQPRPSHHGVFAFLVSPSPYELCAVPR

The next series has as its target human 5-HT2C receptor (Homo sapiens (Human), UniProt P28335). The series is described as follows: cell-based. The class given is cell-based. As to conditions: Ca2+ flux.
The next series deals with CYP2C9 (Homo sapiens (Human), UniProt P11712). The series is described as follows: CYP inhibition in human liver microsomes, CYP2C9. In kind it is in vitro ADME. As to conditions: for inhibition at 10 min, 10 µM: both sexes, human, pooled human liver microsomes, pH 7.4, probe diclofenac (5 μM), HLM, diclofenac substrate, read-out: CYP 2C9 % Inhibition at 10 μM.
CYP2C9, sequence (P11712 whole entry, looked up): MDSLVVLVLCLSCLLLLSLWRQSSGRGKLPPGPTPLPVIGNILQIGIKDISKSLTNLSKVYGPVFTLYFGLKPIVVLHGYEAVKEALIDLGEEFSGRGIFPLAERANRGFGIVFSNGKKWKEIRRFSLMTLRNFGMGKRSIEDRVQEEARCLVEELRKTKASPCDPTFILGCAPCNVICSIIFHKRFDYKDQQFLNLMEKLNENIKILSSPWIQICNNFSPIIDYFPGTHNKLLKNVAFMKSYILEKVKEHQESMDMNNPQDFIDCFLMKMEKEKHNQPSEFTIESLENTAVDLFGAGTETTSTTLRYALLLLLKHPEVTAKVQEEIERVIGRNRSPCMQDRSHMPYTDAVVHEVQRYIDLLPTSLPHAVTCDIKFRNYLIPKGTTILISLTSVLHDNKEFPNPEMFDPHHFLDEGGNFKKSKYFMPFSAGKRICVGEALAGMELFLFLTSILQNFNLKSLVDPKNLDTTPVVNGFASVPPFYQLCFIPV
A further series concerns rat synaptosomes. Description: Synaptosome 5-HT release assay. The class given is biochemical, Sprague-Dawley rats. As to conditions: for EC50: [3H]5-HT. As for the experimental part:
Synaptosome 5-HT Release Assay. Synaptosome release assays were conducted according to modifications of previously described procedures (Partilla et al. (2016). Interrogating the Activity of Ligands at Monoamine Transporters in Rat Brain Synaptosomes. In Neurotransmitter Transporters (pp. 41-52). Springer.). Briefly, synaptosomes were prepared from rat brains. Male Sprague-Dawley rats were rendered unconscious with CO2 and their brains were immediately removed. The cerebella were discarded and the whole brains (minus striatum) were placed in ice-cold 0.32 M sucrose (10 mL per brain) and gently homogenized by hand. The homogenate of each brain was centrifuged at 1,000× g at 4° C. for 10 mins and the resulting supernatant was diluted with ice-cold 0.32 M sucrose to a total volume of 10 mL to provide the synaptosome solution. Synaptosomes were then preloaded with 5 nM [^3H] 5-HT in the presence of selective uptake inhibitors of DAT (50 nM GBR12935), NET (100 nM nomifensine), and VMAT2 (1 μM reserpine) in Krebs phosphate buffer (KPB). The incubations were allowed to reach equilibrium for 2 h at 25° C. For the release reactions, 425 μL of preloaded synaptosomes were added to test tubes containing 75 μL of test drugs diluted in KPB containing 1 mg/mL BSA. After 10 mins, the release reaction was stopped using a cell harvester by rapid vacuum filtration over GF/B filter paper presoaked in wash buffer (10 mM Tris-HCl, pH 7.4, 150 mM NaCl) and the filters were washed with additional wash buffer. Filters were dried for 1 h at 60° C. and retained radioactivity was quantified using a MicroBeta 2 liquid scintillation counter. The amount of retained radioactivity was inversely proportional to the extent of release.

A short description of series [1]: Pharmacokinetics in rats, plasma. In kind it is in vivo. As to conditions: male, Sprague Dawley, rat plasma, SC. How it is done:
Animals. Male Sprague Dawley rats, aged 8-12 weeks, were used in these studies. Four rats were housed in each cage. Temperature and humidity were maintained at 22±3° C. and 30-70%, respectively, and illumination was controlled to give a 12 h light and 12 h dark cycle. Temperature and humidity were recorded by an auto-controlled data logger system. All animals were provided laboratory rodent diet and were fasted for 4 h pre-dose and 2 h post-dose. Reverse osmosis water treated with ultraviolet light was provided ad libitum. Animals were randomly assigned to treatment groups.
Drugs. Compounds 4 and 5 were prepared as described above. Compound 6 was commercially obtained. Test compounds were used as the hydrogen fumarate (6) or hydrochloride (4 and 5) salts and were dissolved in a vehicle consisting of normal saline. They were then administered subcutaneously (SC) at a dose of 1 or 10 mg/kg (calculated based on the free base) and at a volume of 5 mL/kg body weight.
Sample Collection and Bioanalysis. Blood samples (approximately 120 μL) were collected under light isoflurane anesthesia (Surgivet®) from the retro orbital plexus at 0.08, 0.25, 0.5, 1, 2, 4, 8, and 24 h (4 animals per time point). Immediately after blood collection, plasma was harvested by centrifugation at 4,000 rpm for 10 min at 4° C. and samples were stored at −70±10° C. until bioanalysis. Following blood collection, animals were immediately sacrificed, the abdominal vena-cava was cut open, and the whole body was perfused from the heart using 10 mL of normal saline, and brain samples were collected from all animals. After isolation, brain samples were rinsed three times in ice-cold normal saline (for 5-10 seconds/rinse using ˜5-10 mL normal saline in disposable petri dish for each rinse) and dried on blotting paper. Brain samples were homogenized using ice-cold phosphate-buffered saline (pH 7.4). Total homogenate volume was three times the tissue weight. All homogenates were stored at −70±10° C. until bioanalysis. For bioanalysis, 25 μL aliquots of plasma/brain study samples or spiked plasma/brain calibration standards were added to individual pre-labeled micro-centrifuge tubes followed by 100 μL of an internal standard solution (glipizide, 500 ng/ml in acetonitrile) except for blanks, where 100 μL of acetonitrile was added. Samples were vortexed for 5 minutes and then centrifuged for 10 minutes at 4,000 rpm at 4° C. Following centrifugation, 100 μL of each clear supernatant was transferred to a 96 well plate and analyzed with a fit-for-purpose LC-MS/MS method, with authentic samples of each analyte used for calibration and identification.
Data Analysis. Pharmacokinetic parameters were estimated using the non-compartmental analysis tool of Phoenix® WinNonlin software (Ver 8.0).

human 5-HT2C receptor, sequence (P28335 33-458 limits assumed): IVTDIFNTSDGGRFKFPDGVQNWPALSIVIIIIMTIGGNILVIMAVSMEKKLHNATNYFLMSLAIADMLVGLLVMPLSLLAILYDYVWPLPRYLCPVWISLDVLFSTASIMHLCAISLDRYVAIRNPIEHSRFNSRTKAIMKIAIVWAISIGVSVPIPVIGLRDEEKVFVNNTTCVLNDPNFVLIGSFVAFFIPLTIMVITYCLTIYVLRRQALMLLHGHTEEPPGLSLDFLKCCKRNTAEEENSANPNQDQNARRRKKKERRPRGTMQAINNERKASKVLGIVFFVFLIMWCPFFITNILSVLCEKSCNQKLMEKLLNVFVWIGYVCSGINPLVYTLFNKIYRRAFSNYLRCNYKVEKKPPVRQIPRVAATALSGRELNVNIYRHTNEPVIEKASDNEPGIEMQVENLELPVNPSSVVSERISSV

Consider `CCCN(CC)CCc1c[nH]c2ccccc12` [Compound 1, ethylpropyltryptamine], for which the “Average HTR” value worked out at 14.667 in the series on C57BL/6 mice (1 mg/kg SC), 8.000 in the series on C57BL/6 mice (10 mg/kg SC) and 4.500 in the series with C57BL/6 mice (100 mg/kg SC). For the same compound, in the series on C57BL/6 mice, the “maximal effect in HTR” value worked out at 14.7 head twitches/20 min. The inhibition at 10 min, 10 µM at CYP2D6 came out at 58.6%; at CYP2C9 it was 0.1%. Further, the “5-HT2C % Act @ Max Dose” value on human 5-HT2C receptor came out at 90.8%. At human 5-HT2C receptor, this compound gave an EC50 of 33.4 nM.

In the case of `CCN(C)CCc1c[nH]c2ccccc12` [Compound 2, methylethyltryptamine], the “Average HTR” value amounted to 3.667 in the series on C57BL/6 mice (1 mg/kg SC), 2.500 in the series on C57BL/6 mice (10 mg/kg SC) and 0.500 with C57BL/6 mice (100 mg/kg SC). In the series on C57BL/6 mice, the “maximal effect in HTR” value is listed as 6.00 head twitches/20 min. The half-inhibitory concentration (IC50) is 31500 nM against CYP2D6 and greater than 50000 nM at CYP2C9. Moreover, the inhibition at 10 min, 10 µM at CYP2D6 stood at 11.5%; at CYP2C9, 0%. For the same compound, the “5-HT2C % Act @ Max Dose” value at human 5-HT2C receptor is 89.7%. Besides, the “% Release @ Max Dose (10 μM)” value in the series on rat synaptosomes is 71%. The same compound came in with an EC50 in the series with rat synaptosomes of 183 nM.

As to `CCCN(CC)CCc1c[nH]c2ccc(F)cc12` [Compound 3, N-ethyl-N-(2-(5-fluoro-1H-indol-3-yl)ethyl) propan-1-amine hydrochloride], the figures for the “Average HTR” value in the series on C57BL/6 mice (0.1 mg/kg SC), in the series on C57BL/6 mice (1 mg/kg SC) and with C57BL/6 mice (10 mg/kg SC) were 12.5, 29.333 and 26.333, respectively. For the same compound, the “maximal effect in HTR” value with C57BL/6 mice worked out at 29.33 head twitches/20 min. Further, the results for the IC50 against CYP2D6 and against CYP2C9 were 1900 nM and greater than 50000 nM, respectively.

Regarding `CCN(C)CCc1c[nH]c2ccc(F)cc12` [Compound 4, N-ethyl-2-(5-fluoro-1H-indol-3-yl)-N-methylethan-1-amine hydrochloride], the “Average HTR” value in the series with C57BL/6 mice (0.1 mg/kg SC) is given as 5.00; in the series with C57BL/6 mice (1 mg/kg SC) it was 18.333; in the series with C57BL/6 mice (10 mg/kg SC), 9.333. For the same compound, the “total number of HTR counts vs. vehicle (FIG. 2)” value in the series with C57BL/6 mice (Cmp 4 alone, Dunnett's test, P<0.0001) is recorded as “significantly different from vehicle”. In the series on C57BL/6 mice, the “maximal effect in HTR” value worked out at 27.67 head twitches/20 min. Moreover, the IC50 on CYP2D6 and on CYP2C9 was greater than 50000 nM each time. Besides, the “5-HT2C % Act @ Max Dose” value at human 5-HT2C receptor is reported as 85.13%. For the same compound, the concentration giving a half-maximal response (EC50) amounted to 9.46 nM at human 5-HT2C receptor and 8.43 nM in the series on rat synaptosomes. For the same compound, the values for the exposure AUC(0-t) in series [1] (1 mg/kg) and in series [1] (10 mg/kg) were 46.8 ng·h/mL and 499 ng·h/mL, respectively. For the same compound, the figures for the Cmax in series [1] (1 mg/kg) and in series [1] (10 mg/kg) were 41.3 ng/mL and 237 ng/mL, respectively. The figures for the Tmax in series [1] (1 mg/kg) and in series [1] (10 mg/kg) were 30 min and 60 min, respectively. For the same compound, the “% Release @ Max Dose (10 μM)” value in the series on rat synaptosomes is recorded as 71.36%.

For `CN(C)CCc1c[nH]c2ccc(F)cc12` [Compound 5, 2-(5-fluoro-1H-indol-3-yl)-N,N-dimethylethan-1-amine hydrochloride], in series [1] (10 mg/kg), the AUC(0-t) worked out at 266 ng·h/mL, the Cmax worked out at 243 ng/mL, the Tmax came out at 15 min and the half-life is 33 min.

On to `CCN(C)CCc1c[nH]c2cccc(O)c12` [Compound 6], for which, on CYP2D6, the IC50 came out at 48500 nM. For the same compound, in series [1] (10 mg/kg), the AUC(0-t) came to 3000 ng·h/mL, the Cmax amounted to 624 ng/mL and the Tmax came out at 120 min. Moreover, on CYP2C9, the IC50 is greater than 50000 nM.

In the case of `CN(C)CCc1c[nH]c2ccccc12` [DMT, N,N-dimethyltryptamine, reference compound], in the series on rat synaptosomes, the “% Release @ Max Dose (10 μM)” value is 80.77% and a half-maximal response (EC50) required 80.8 nM.
